Reference: US20100041089A1, “IMPROVED METHOD FOR DETECTING CHEMICAL […]” (priority 2006, published 2010)

System: yeast genes (expressed mRNA)
Assay: DNA chip measurement of expressed mRNA of yeast genes after culture with a toxic chemical substance
Format: cell-based, Saccharomyces cerevisiae S288C
Method in brief: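 Fluorescence ratio, treated over untreated, read by chip scanner; ratio of two or more counted significant. Cells: S288C yeast, YPD, 25° C, chemical added at log phase for 2 h at growth-inhibiting, sublethal level. Cy3/Cy5-labeled cDNA from oligo-dT-purified mRNA.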

Q: Which “The level of expressed mRNA in the presence of chemical substance/The level of expressed mRNA in the absence of chemical substance” value (yeast gene YMR316W, cultured two hours with substance) does the source give for `N#Cc1c(Cl)c(Cl)c(Cl)c(C#N)c1Cl` [(9), 2,4,5,6-Tetrachloro-1,3-benzenedicarbonitrile] here?
A: 2.1

Q: And the “The level of expressed mRNA in the presence of chemical substance/The level of expressed mRNA in the absence of chemical substance” value (yeast gene YMR322C, cultured two hours with substance)?
A: 21.3

Q: What about the “The level of expressed mRNA in the presence of chemical substance/The level of expressed mRNA in the absence of chemical substance” value (yeast gene YNL044W, cultured two hours with substance) of the same compound?
A: 0.8

Q: What about the “The level of expressed mRNA in the presence of chemical substance/The level of expressed mRNA in the absence of chemical substance” value (yeast gene YNL074C, cultured two hours with substance) of the same compound?
A: 1.5

Q: What about the “The level of expressed mRNA in the presence of chemical substance/The level of expressed mRNA in the absence of chemical substance” value (yeast gene YNL092W, cultured two hours with substance) of the same compound?
A: 2.3

Q: What about the “The level of expressed mRNA in the presence of chemical substance/The level of expressed mRNA in the absence of chemical substance” value (yeast gene YNL115C, cultured two hours with substance) of the same compound?
A: 2.6

Q: And the “The level of expressed mRNA in the presence of chemical substance/The level of expressed mRNA in the absence of chemical substance” value (yeast gene YNL117W, cultured two hours with the chemical substance)?
A: 12.8

Q: What about the “The level of expressed mRNA in the presence of chemical substance/The level of expressed mRNA in the absence of chemical substance” value (yeast gene YNL156C, cultured two hours with substance) of the same compound?
A: 2.4

Q: And the “The level of expressed mRNA in the presence of chemical substance/The level of expressed mRNA in the absence of chemical substance” value (yeast gene YNL190W, cultured two hours with substance)?
A: 1.1

Q: What about the “The level of expressed mRNA in the presence of chemical substance/The level of expressed mRNA in the absence of chemical substance” value (yeast gene YNL208W, cultured two hours with substance) of the same compound?
A: 2.3

Q: And the “The level of expressed mRNA in the presence of chemical substance/The level of expressed mRNA in the absence of chemical substance” value (yeast gene YNL234W, cultured two hours with substance)?
A: 2.6

Q: And the “The level of expressed mRNA in the presence of chemical substance/The level of expressed mRNA in the absence of chemical substance” value (yeast gene YNL281W, cultured two hours with substance)?
A: 2.8

Q: And the “The level of expressed mRNA in the presence of chemical substance/The level of expressed mRNA in the absence of chemical substance” value (yeast gene YNL305C, cultured two hours with substance)?
A: 2.9

Q: What about the “The level of expressed mRNA in the presence of chemical substance/The level of expressed mRNA in the absence of chemical substance” value (yeast gene YNL331C) of the same compound?
A: 42.6

Q: And the “The level of expressed mRNA in the presence of chemical substance/The level of expressed mRNA in the absence of chemical substance” value (yeast gene YNL331C, cultured for two hours with substance)?
A: 42.6

Q: What about the “The level of expressed mRNA in the presence of chemical substance/The level of expressed mRNA in the absence of chemical substance” value (yeast gene YNR068C, cultured two hours with substance) of the same compound?
A: 6.7

Q: And the “The level of expressed mRNA in the presence of chemical substance/The level of expressed mRNA in the absence of chemical substance” value (yeast gene YOL030W, cultured two hours with the chemical substance)?
A: 1.2

Q: What about the “The level of expressed mRNA in the presence of chemical substance/The level of expressed mRNA in the absence of chemical substance” value (yeast gene YOL032W, cultured two hours with substance) of the same compound?
A: 4.5

Q: What about the “The level of expressed mRNA in the presence of chemical substance/The level of expressed mRNA in the absence of chemical substance” value (yeast gene YOL036W, cultured two hours with substance) of the same compound?
A: 3.1

Q: What about the “The level of expressed mRNA in the presence of chemical substance/The level of expressed mRNA in the absence of chemical substance” value (yeast gene YOL047C, cultured two hours with substance) of the same compound?
A: 0.6

Q: What about the “The level of expressed mRNA in the presence of chemical substance/The level of expressed mRNA in the absence of chemical substance” value (yeast gene YOL071W, cultured two hours with substance) of the same compound?
A: 4.4

Q: And the “The level of expressed mRNA in the presence of chemical substance/The level of expressed mRNA in the absence of chemical substance” value (yeast gene YOL082W, cultured two hours with substance)?
A: 3.4

Q: And the “The level of expressed mRNA in the presence of chemical substance/The level of expressed mRNA in the absence of chemical substance” value (yeast gene YOL083W, cultured two hours with substance)?
A: 2.7

Q: What about the “The level of expressed mRNA in the presence of chemical substance/The level of expressed mRNA in the absence of chemical substance” value (yeast gene YOL117W, cultured two hours with substance) of the same compound?
A: 1.3

Q: And the “The level of expressed mRNA in the presence of chemical substance/The level of expressed mRNA in the absence of chemical substance” value (yeast gene YOL131W, cultured two hours with substance)?
A: 8.4

Q: What about the “The level of expressed mRNA in the presence of chemical substance/The level of expressed mRNA in the absence of chemical substance” value (yeast gene YOL150C, cultured two hours with substance) of the same compound?
A: 10.8

Q: What about the “The level of expressed mRNA in the presence of chemical substance/The level of expressed mRNA in the absence of chemical substance” value (yeast gene YOL162W, cultured two hours with substance) of the same compound?
A: 12.0

Q: What about the “The level of expressed mRNA in the presence of chemical substance/The level of expressed mRNA in the absence of chemical substance” value (yeast gene YOL165C) of the same compound?
A: 46.9

Q: And the “The level of expressed mRNA in the presence of chemical substance/The level of expressed mRNA in the absence of chemical substance” value (yeast gene YOL165C, cultured for two hours with substance)?
A: 46.9

Q: What about the “The level of expressed mRNA in the presence of chemical substance/The level of expressed mRNA in the absence of chemical substance” value (yeast gene YOR019W, cultured two hours with substance) of the same compound?
A: 3.5

Q: And the “The level of expressed mRNA in the presence of chemical substance/The level of expressed mRNA in the absence of chemical substance” value (yeast gene YOR197W, cultured two hours with substance)?
A: 0.8

Q: What about the “The level of expressed mRNA in the presence of chemical substance/The level of expressed mRNA in the absence of chemical substance” value (yeast gene YOR215C, cultured two hours with substance) of the same compound?
A: 2.1

Q: And the “The level of expressed mRNA in the presence of chemical substance/The level of expressed mRNA in the absence of chemical substance” value (yeast gene YOR228C, cultured two hours with substance)?
A: 1.4

Q: What about the “The level of expressed mRNA in the presence of chemical substance/The level of expressed mRNA in the absence of chemical substance” value (yeast gene YOR248W, cultured two hours with substance) of the same compound?
A: 0.1

Q: What about the “The level of expressed mRNA in the presence of chemical substance/The level of expressed mRNA in the absence of chemical substance” value (yeast gene YOR382W, cultured two hours with substance) of the same compound?
A: 1.1

Q: What about the “The level of expressed mRNA in the presence of chemical substance/The level of expressed mRNA in the absence of chemical substance” value (yeast gene YOR391C, cultured two hours with substance) of the same compound?
A: 18.8

Q: And the “The level of expressed mRNA in the presence of chemical substance/The level of expressed mRNA in the absence of chemical substance” value (yeast gene YPL052W, cultured two hours with substance)?
A: 2.0

Q: What about the “The level of expressed mRNA in the presence of chemical substance/The level of expressed mRNA in the absence of chemical substance” value (yeast gene YPL087W, cultured two hours with substance) of the same compound?
A: 1.0

Q: What about the “The level of expressed mRNA in the presence of chemical substance/The level of expressed mRNA in the absence of chemical substance” value (yeast gene YPL194W, DNA repair protein genes, cultured two hours with substance) of the same compound?
A: 9.6

Q: And the “The level of expressed mRNA in the presence of chemical substance/The level of expressed mRNA in the absence of chemical substance” value (yeast gene YPL196W, cultured two hours with substance)?
A: 10.9

Q: And the “The level of expressed mRNA in the presence of chemical substance/The level of expressed mRNA in the absence of chemical substance” value (yeast gene YPL206C, cultured two hours with substance)?
A: 1.7

Q: And the “The level of expressed mRNA in the presence of chemical substance/The level of expressed mRNA in the absence of chemical substance” value (yeast gene YPL222W, cultured two hours with substance)?
A: 7.4

Q: And the “The level of expressed mRNA in the presence of chemical substance/The level of expressed mRNA in the absence of chemical substance” value (yeast gene YPL223C (stress protein genes))?
A: 29.4

Q: What about the “The level of expressed mRNA in the presence of chemical substance/The level of expressed mRNA in the absence of chemical substance” value (yeast gene YPL272C, cultured two hours with the chemical substance) of the same compound?
A: 1.2

Q: What about the “The level of expressed mRNA in the presence of chemical substance/The level of expressed mRNA in the absence of chemical substance” value (yeast gene YPL280W, cultured two hours with substance) of the same compound?
A: 49.8

Q: What about the “The level of expressed mRNA in the presence of chemical substance/The level of expressed mRNA in the absence of chemical substance” value (yeast gene YPR023C, cultured two hours with substance) of the same compound?
A: 4.4

Q: And the “The level of expressed mRNA in the presence of chemical substance/The level of expressed mRNA in the absence of chemical substance” value (yeast gene YPR079W, cultured two hours with substance)?
A: 1.7

Q: What about the “The level of expressed mRNA in the presence of chemical substance/The level of expressed mRNA in the absence of chemical substance” value (yeast gene YPR150W, cultured two hours with the chemical substance) of the same compound?
A: 1.2

Q: And the “The level of expressed mRNA in the presence of chemical substance/The level of expressed mRNA in the absence of chemical substance” value (yeast gene YPR151C, cultured two hours with substance)?
A: 3.0

Q: And the “The level of expressed mRNA in the presence of chemical substance/The level of expressed mRNA in the absence of chemical substance” value (yeast gene YPR167C)?
A: 76.6
